Laboratory results taken from patent publication US20240262845A1, “PYRIDINIUM SALTS, METHODS OF MAKING, AND METHODS OF USE” (UNIVERSITY OF WYOMING, priority 2023, published 2024).
Entries after “also recorded” stand apart in the source; their conditions may differ. Where a name gives a salt, the structure may show the parent alone.

Test system: HEK293T lysates
Experiment: Chemoproteomic profiling of HEK293T lysates (protein-level enrichment)
Format: biochemical, human
Procedure: In lysate tryptophan probe treatment for protein-level characterization: HEK293T cell pellets were suspended in native lysis buffer (50 mM HEPES pH 7.5, 150 mM sodium chloride (NaCl), 1.5 mM MgCl2, 1 mM DTT, 0.8% NP-40, 5% glycerol, and 1× protease inhibitors (Thermo)) at 2× the pellet volume. The samples were sonicated on ice for 30 seconds at 20% amplitude with a 2 second pulse ON and 3 second pulse OFF. Cell debris was removed by centrifugation at 20,000×g for 20 minutes at 4° C. Protein concentration was determined by bicinchoninic acid (BCA) (Pierce) and diluted down to 5 mg/mL with ChemProt buffer (50 mM HEPES pH 7.5, 150 mM NaCl, 1.5 mM MgCl2, 1 mM DTT, 0.4% NP-40, and 1x protease inhibitors (Thermo). 5 mg cell lysates were treated with 100× stocks of the tryptophan probes (pyridinium salts 1a, 1b, and 2b) to generate final concentrations (0, 1, 10, and 100 μM) in 1% DMSO. Lysates were incubated for 1 hour at 4° C. followed by photo-activation at respective wavelengths for 20 minutes at 4° C. Excess probe was removed using Sephadex G-25 PD-10 desalting columns (GE Healthcare) pre-equilibrated with 50 mM HEPES pH 7.5, 150 mM NaCl, 1.5 mM MgCl2, and 0.4% NP-40. The samples were then treated with 100 μL Neutravidin resin as a 50% slurry (Peirce). The samples were incubated overnight on a rotating apparatus at R.T. The following day, the beads were transferred to a MobiCol column (Boca Scientific), washed 3× with phosphate buffered saline (PBS) containing 0.2% SDS, washed 3× with PBS, and the enriched proteins were eluted with 2× NuPAGE lithium dodecyl sulfate (LDS) containing 10 mM DTT (Pierce) and heated for 30 minutes at 55° C. The eluent was collected and subsequently treated with 20 mM iodoacetamide (Pierce) for 30 minutes at R.T. protected from light. Samples were passed through detergent removal columns (Pierce) that were pre-equilibrated with 50 mM HEPES pH 8.0. The samples were treated with 2.5 μg Trypsin/LysC (Promega) at 37° C. for 16 hours. The following day, the sample was collected and prepped for isobaric labeling with TMT reagents (Thermo) as specified by the manufacturer.
Quantitative proteomics by two-dimensional nano liquid chromatography-tandem mass spectrometry (nLC-MS/MS): For protein-level characterization, the TMT-labeled sample were reconstituted in 0.1% formic acid (FA)/2% acetonitrile for offline high-pH reversed phase separation (RP10) using a Dionex UltiMate 3000 high-performance liquid chromatography (HPLC) system with fraction collection using Chromeleon v.6.8 (Thermo) software. Separation was achieved on a Waters Xbridge C18 3.5 μm 2.1×150 mm HPLC column (Waters) using a flow rate of 250 μL min-1 and the following ternary gradient and conditions: mobile phase A=water (HPLC grade), mobile phase B=acetonitrile (HPLC grade), and mobile phase C=200 mM ammonium acetate, pH 10. Mobile phase C is held at 10% throughout gradient. Starting conditions are 89% mobile phase A and 1% mobile phase B, ramping mobile phase B to 80% over 65 min. Fractions were collected in 96-well plates at 100 sec per well. Fractions were reduced down to 12 fractions, dried, and reconstituted in 0.1% FA/2% acetonitrile for nLC-MS/MS. All data were acquired using a Orbitrap Fusion Lumos coupled to an Easy-nLC 1200 nanoflow liquid chromatograph operating at 300 nL min-1. Peptides were cleaned up using a 1 cm online custom trap then eluted on a custom 20 cm laser pulled 75 μm column with C18 resin. Peptides were quantified using the synchronous precursor selection (SPS-MS3) or HCD method for TMT quantitation with 120k MS1 resolving power, 50 ms max injection time and 100% AGC. MS2 spectra were selected using the top ten most abundant features with a charge state between 2-6 using CID (collision induced dissociation) in the ion trap. The AGC was set to 100% with an isolation width of 0.7. MS3 was performed on the top 10 most abundant MS2 features between 400-1600 amu with a collision energy of 55%, AGC of 250%, and 50k resolution. […]

COc1ccc2cc(-c3cc(C)[n+](N(C)C(=O)OCCCCC[C@H]4SC[C@H]5NC(=O)N[C@H]54)c(C)c3)ccc2c1 (stereo in doubt) [pyridinium salt 2b, 4-(6-methoxynaphthalen-2-yl)-2,6-dimethyl-1-(methyl(((5-((3aR,4R,6aS)-2-oxohexahydro-1H-thieno[3,4-d]imidazol-4-yl)pentyl)oxy)carbonyl)amino)pyridin-1-ium tetrafluoroborate]
Western blot (streptavidin-HRP) proteome labeling profile of elutions (0-100 μM probe, with/without light, before digestion): concentration and optically dependent proteome labeling profiles; also recorded: dose-response profiles
percentage of unique enriched proteins (proteome coverage comparison of probes) (100 μM probe, FIG. 17B): about 69%
number of proteins identified (from ≥2 unique peptides) showing ≥2-fold enrichment versus DMSO (about 100 μM probe, 5 mg/mL lysate, 60 min incubation, 20 min irradiation: 302 nm (1a), 320 nm (1b), 440 nm (2b)): 523
